# System: rat 9 L gliosarcoma cells
# Experiment: cell proliferation experiment, 9 L gliosarcoma cells
# Type: cell-based
# Details: 10 uM Fisetin for 24 hours, then 48 hours without; 72 hours, dynamic incubation vs constant
# Description: Referring now to FIG. 11, another graph illustrating the results of another cell proliferation experiment is depicted. In this experiment, rat 9 L gliosarcoma cells after 72 hours of culture in controlled temperature and gas concentration (constant 37° C. and 5% CO2) are compared with dynamic incubation using the dynamic incubator system 10 (cycling 37° C. and 5% CO2 for 8 hrs., then 38° C. and 5.5% CO2 for 30 min.). The experiment included 10 uM Fisetin. In addition, 100,000 9 L cells were plated in a T75 flask, containing 10 mL of α-MEM medium, with 10 uM Fisetin. In addition, the medium was refreshed after 24 hours without Fisetin, and the cells were then cultured for a 48 additional hours. […] P-values are from t-test compared to control.
smiles,measurement,value
O=c1c(O)c(-c2ccc(O)c(O)c2)oc2cc(O)ccc12 [Fisetin],9 L cell numbers,decreases cell numbers
